Results: patent publication US20010044447A1 (priority 1999, published 2001)

Tests used:
[1] = tested on: motoneurons (trophic activity produced by spinal astrocytes); conditions: H. PELUFFO et al., Neuroscience letters, 228, 207-211 (1997); cited from earlier work
[2] = tested on: motoneurons (trophic activity produced by spinal astrocytes); type: cell-based, Wistar rats; conditions: each product 0.1 μM; astrocyte monolayers exposed 24 hours, conditioned medium taken up 24 hours later; percentage of the number of motoneurons in cultures maintained with BDNF; vehicle alone 44 ± 1.41
Method: The motoneurons are plated, at a density of 2500 cells per 35 mm plate, on culture plates previously coated with laminin/ornithine according to the method of A. G. ESTEVEZ et al., J. Neurosci., 18 (3), 923-931 (1998). The cultures are then maintained in L15 medium (GIBCO BRL) containing sodium bicarbonate (22 mM), conalbumin (0.1 mg/ml), putrescine (0.1 mM), insulin (5 μg/ml), sodium selenite (31 nM), glucose (20 mM), progesterone (21 nM), penicillin (100 IU/ml) and streptomycin (100 μg/ml).
The motoneurons thus obtained are composed of large (25-30 μM) and homogeneous neurones with long branched neurites. More than 70% of the cells are immunoreactive for the p75 neurotrophin receptor and the markers Islet 1/2 for the spinal motoneurons. About 70% of the motoneurons die by apoptosis 24 hours after the plating if the culture is carried out in the absence of a trophic factor. […]
The monolayers of astrocytes show a purity of more than 98% determined by immunoreactivity for the glial fibrillary acidic protein (GFAP). […]
The number of motoneurons is evaluated by counting the labelled cells in a surface area of 0.4-1 cm^2 under a microscope with a 200 times magnification.

Nc1nc2ccc(OC(F)(F)F)cc2s1 [riluzole]
Production, by the astrocytes, of trophic activity for the motoneurons [1]: stimulated

CO[C@]12C[C@@H](COC(=O)c3cncc(Br)c3)CN(C)[C@@H]1Cc1cn(C)c3cccc2c13 [nicergoline, (8 p)-10-methoxy-1,6-dimethylergoline-8-methanol-5-bromonicotinate]
Motoneuronal survival in % [2]: 44.5 ± 3.53%

CO[C@]12C[C@@H](CO)CN(C)[C@@H]1Cc1cn(C)c3cccc2c13 [lumilysergol, 1,6-dimethyl-8β-hydroxymethyl-10α-methoxyergoline]
Motoneuronal survival in % [2]: 57.4 ± 3.53%
